Results published in article PMC13077603, “Fluorine‐18‐Labeled Nucleotide Analogs Targeting Ecto‐5'‐Nucleotidase (CD73) for Positron Emission Tomography Imaging of Solid Tumors” (Angewandte Chemie (International Ed. in English), 2026).

Key:
[1] = logD7.4 determination of radiotracers (PBS/octan-1-ol); type: physicochemical; settings: octan-1-ol/PBS; PBS pH 7.4 / octan-1-ol, radiotracer
Protocol: The logD 7.4 values of both radiotracers were determined using a previously described method based on their distribution between phosphate‐buffered saline (PBS) and octan‐1‐ol.
Triazole radiotracers (~400 kBq) in PBS buffer (10 µL, pH 7.4) were added to PBS buffer (590 µL, pH 7.4) and octan-1-ol (600 µL). The two-layer mixture was shaken for 3 min on a vortex mixer at r.t. and centrifuged (200 g) for 5 min. The main part of the octanol layer (400 µL) was carefully collected and transferred to a new tube containing PBS buffer (400 µL, pH 7.4). The two-layer mixture was shaken again for 10 min and centrifuged for 5 min (200 g). Three samples were prepared, and two aliquots (á 100 µL) of both layers were measured in a gamma-counter 2480 Wizard2 (Perkin-Elmer, Waltham, USA). The partition coefficient was determined by dividing cpm (octanol) by cpm (PBS) and indicated as logD7.4 (exp.).

[2] = biological target: T1, Soluble recombinant human CD73 (Homo sapiens, UniProt P21589); assay: CD73 enzyme inhibition assay, soluble recombinant human CD73; type: biochemical; settings: soluble recombinant human CD73, Km 17 µM, substrate AMP (5 µM)
T1 sequence (P21589 27-549 limits assumed): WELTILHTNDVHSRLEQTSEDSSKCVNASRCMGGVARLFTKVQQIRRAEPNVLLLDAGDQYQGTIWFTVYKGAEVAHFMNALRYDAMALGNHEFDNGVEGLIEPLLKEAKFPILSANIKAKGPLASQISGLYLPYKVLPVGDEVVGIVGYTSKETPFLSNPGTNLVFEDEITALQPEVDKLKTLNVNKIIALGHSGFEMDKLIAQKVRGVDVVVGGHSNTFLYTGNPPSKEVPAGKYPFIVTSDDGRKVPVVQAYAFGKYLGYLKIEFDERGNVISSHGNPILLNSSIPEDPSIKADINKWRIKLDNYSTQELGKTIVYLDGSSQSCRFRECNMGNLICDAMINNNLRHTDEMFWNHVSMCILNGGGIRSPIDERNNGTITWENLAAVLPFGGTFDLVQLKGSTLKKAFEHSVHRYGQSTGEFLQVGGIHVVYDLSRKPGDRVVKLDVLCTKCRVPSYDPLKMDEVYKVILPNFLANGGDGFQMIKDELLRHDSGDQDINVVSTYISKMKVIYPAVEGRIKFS
Protocol: Both compounds were evaluated for metabolic stability in mouse liver microsomes (MLM) and plasma protein binding (PPB) (Table 1).
The CD73 enzyme inhibition assay of recombinant soluble CD73, membrane-bound human CD73, soluble rat CD73 and mouse CD73 was performed as previously described.^[16,35^]

[3] = biological target: T2, CD73/AMPase activity in human breast tumor tissues (Homo sapiens, UniProt P21589); assay: In situ enzyme histochemistry of AMPase activity in breast tumor cryosections; type: biochemical; settings: 10–50 nM inhibitor, 400 µM AMP, tissue cryosections
T2 construct: cryosections of breast tumor samples as well as sentinel lymph node samples were investigated; from tissue; host or cells: primary breast tumors and sentinel lymph nodes of two patients, 6 µm cryosections
T2 sequence (P21589 27-574): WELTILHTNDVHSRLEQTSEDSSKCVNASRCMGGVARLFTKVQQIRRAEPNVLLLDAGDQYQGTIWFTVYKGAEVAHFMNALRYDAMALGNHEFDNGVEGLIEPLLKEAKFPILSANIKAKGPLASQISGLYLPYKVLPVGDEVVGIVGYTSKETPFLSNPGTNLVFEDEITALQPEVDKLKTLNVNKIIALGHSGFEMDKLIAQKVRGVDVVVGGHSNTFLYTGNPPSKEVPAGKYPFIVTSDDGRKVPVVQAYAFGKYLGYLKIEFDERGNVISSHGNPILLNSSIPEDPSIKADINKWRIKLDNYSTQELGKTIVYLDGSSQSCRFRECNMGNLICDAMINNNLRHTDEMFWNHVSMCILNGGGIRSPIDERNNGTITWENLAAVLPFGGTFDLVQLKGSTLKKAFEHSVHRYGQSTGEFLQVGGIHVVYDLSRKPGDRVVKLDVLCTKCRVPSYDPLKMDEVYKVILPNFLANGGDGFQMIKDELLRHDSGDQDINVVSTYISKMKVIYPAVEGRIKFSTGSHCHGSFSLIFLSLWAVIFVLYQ
Protocol: Subsequent analysis of CD73‐mediated AMPase activities was performed by incubating tissue cryosections with AMP and CD73 inhibitors at different concentrations. Figure 2 depicts representative images of AMP‐specific staining in breast tumors from patient X (panel A) and patient Y (panel B), determined in the absence (control) and in the presence of 10 nM of the potent CD73 inhibitor 1.
FIGURE 3 Effects of CD73 inhibitors on AMPase activity in human breast tumor tissues. The effects of CD73 inhibitors on AMPase activity was determined in situ by incubating primary breast tumor samples from patient X (A) and patient Y (B) with 400 µM AMP and 1.5 mM Pb(NO3)2 in the absence (control) and the presence of the indicated concentrations of CD73 inhibitor. (C). Mean pixel intensities of brown staining due to the hydrolysis of AMP leading to Pb3(PO4)2 precipitation were quantified in the selected regions and expressed as arbitrary units (AU) (mean ± SEM; n = 2). Scale bars: 2 mm (A, B), and 500 µm (A, right insets).
For the localization of AMPase activities in human tumors, the lead nitrate-based enzyme histochemistry was employed. […] AMPase activity was determined by measuring AMP-specific brown staining intensities from the images using QuPath v.0.3.0 software. […] The average DAB intensity levels were measured as described earlier.^[39^] […]

[4] = biological target: Human serum albumin (HSA) (Homo sapiens, UniProt P02768); assay: Plasma protein binding (human serum albumin binding); type: in vitro ADME; settings: human serum albumin (HSA), read-out: Plasma protein binding (PPB) (converted)
Protocol: Human serum albumin (HSA) binding.
Plasma protein binding was determined following previously published procedure.^[38^]

Human serum albumin (HSA), sequence (P02768 25-609): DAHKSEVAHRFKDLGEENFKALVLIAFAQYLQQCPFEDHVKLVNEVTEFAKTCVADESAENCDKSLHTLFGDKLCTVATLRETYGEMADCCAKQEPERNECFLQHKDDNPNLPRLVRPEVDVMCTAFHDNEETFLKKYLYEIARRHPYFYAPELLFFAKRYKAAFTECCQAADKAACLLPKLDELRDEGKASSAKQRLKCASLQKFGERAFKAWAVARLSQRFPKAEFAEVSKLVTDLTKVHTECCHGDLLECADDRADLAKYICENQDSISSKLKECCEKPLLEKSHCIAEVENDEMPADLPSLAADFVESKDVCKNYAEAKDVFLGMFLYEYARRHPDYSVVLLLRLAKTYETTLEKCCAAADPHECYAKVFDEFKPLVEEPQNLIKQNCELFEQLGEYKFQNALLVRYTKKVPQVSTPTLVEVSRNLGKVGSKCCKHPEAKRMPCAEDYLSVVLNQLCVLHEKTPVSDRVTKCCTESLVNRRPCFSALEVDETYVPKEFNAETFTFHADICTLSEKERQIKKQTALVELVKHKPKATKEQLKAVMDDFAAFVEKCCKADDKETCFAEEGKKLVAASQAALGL

- logD [1]: 0.74 ± 0.3
- Ki [2]: 664 pM
- Reduction of CD73/AMPase activity in the breast TME [3]: 60%–70
- fraction unbound [4]: 0.34
Compound: Cn1c(=O)n([C@@H]2O[C@H](COP(=O)(O)CP(=O)(O)O)[C@@H](O)[C@H]2O)cc/c1=N/OCc1ccc(-c2cn(CCF)nn2)cc1 [compound 2, [((2R,3S,4R,5R)-5-{4-[({4-[1-(2-Fluoroethyl)-1H-1,2,3-triazol-4-yl]benzyl}oxy)-imino]-3-methyl-2-oxo-3,4-dihydropyrimidin-1(2H)-yl}-3,4-dihydroxytetrahydro-furan-2-yl)methoxy]-(phosphonomethyl)phosphonic acid]
